Where two headings read alike, the source gives them in different places.
Key:
Experiment in all cases: HotSpot kinase profiling
Type in all cases: biochemical
DYRK1/DYRK1A = target: T1, DYRK1/DYRK1A (Homo sapiens, UniProt Q13627)
T1 construct: purchased Reaction Biology Corp
Procedure: (§1) The binding assay system for profiling kinase activity were based upon HotSpot technology (Reaction Biology Corp.; Malvern, Pa., USA) and utilized radio-isotope-based P81 filtration. […] Substrates for the various kinases tested against Compound 2 (substrate information available on the Reaction Biology Corp. website) were prepared fresh daily in Reaction Buffer. Any required cofactors were then added to the substrate solution. The identification and selection of the appropriate cofactor for each kinase is within the ability of a person skilled in the art. See, for example, Handbook of Assay Development in Drug Discovery, Ed. Lisa K. Minor, 2006: CRC Press, Boca Raton, Fla.; Gao et al., “A broad activity screen in support of a chemogenomic map for kinase signalling research and drug discovery,” Biochem J. 2013, 451(2): 313-28; and Eglen et al., “Drug discovery and the human kinome: Recent trends,” Pharmacology & Therapeutics 2011, 130(2): 144-156. The kinase was then added to the substrate solution and gently mixed. […] This was followed by incubation at room temperature for 2 h. The reaction was terminated and any unreacted phosphate was washed away using 0.1% phosphoric acid prior to detection utilizing a proprietary technology. […] DMSO was used as the negative control.
(§2) Percent inhibition was expressed as an average where the assay was performed more than once, e.g., in duplicate.

EPHA8 = target: T2, EPHA8 (Homo sapiens, UniProt P29322)
T2 construct: purchased Reaction Biology Corp
T2 sequence (P29322 28-1005): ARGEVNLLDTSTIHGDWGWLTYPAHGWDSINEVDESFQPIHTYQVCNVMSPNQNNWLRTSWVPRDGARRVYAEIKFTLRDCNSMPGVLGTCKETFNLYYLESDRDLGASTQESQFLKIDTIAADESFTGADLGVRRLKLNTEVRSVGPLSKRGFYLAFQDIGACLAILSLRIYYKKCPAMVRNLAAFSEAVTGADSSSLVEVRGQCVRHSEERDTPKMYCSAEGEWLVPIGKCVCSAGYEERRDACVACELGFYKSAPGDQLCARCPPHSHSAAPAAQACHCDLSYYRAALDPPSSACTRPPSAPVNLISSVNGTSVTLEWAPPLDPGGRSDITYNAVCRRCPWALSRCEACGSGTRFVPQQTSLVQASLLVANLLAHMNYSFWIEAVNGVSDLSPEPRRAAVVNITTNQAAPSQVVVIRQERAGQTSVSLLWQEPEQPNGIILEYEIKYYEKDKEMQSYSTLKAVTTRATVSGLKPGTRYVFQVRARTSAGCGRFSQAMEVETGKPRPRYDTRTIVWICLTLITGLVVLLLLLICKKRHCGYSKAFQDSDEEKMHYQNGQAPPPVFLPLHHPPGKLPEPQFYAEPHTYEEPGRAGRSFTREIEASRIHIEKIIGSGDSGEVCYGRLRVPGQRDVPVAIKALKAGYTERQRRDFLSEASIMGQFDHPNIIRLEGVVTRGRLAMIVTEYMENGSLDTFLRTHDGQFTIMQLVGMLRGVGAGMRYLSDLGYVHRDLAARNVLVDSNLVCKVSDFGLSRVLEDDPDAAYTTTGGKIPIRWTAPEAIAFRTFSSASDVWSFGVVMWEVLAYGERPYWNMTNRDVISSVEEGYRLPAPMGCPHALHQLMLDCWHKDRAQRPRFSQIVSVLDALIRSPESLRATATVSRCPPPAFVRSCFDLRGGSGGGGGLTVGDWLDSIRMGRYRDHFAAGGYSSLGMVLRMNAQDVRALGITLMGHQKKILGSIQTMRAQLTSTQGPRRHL
Procedure: as §1, §2

CK1a1 = target: T3, CK1a1 (Homo sapiens, UniProt P48729)
T3 construct: purchased Reaction Biology Corp
Procedure: as §1, §2

TAOK2/TAO1 = target: T4, TAOK2/TAO1 (Homo sapiens, UniProt Q9UL54)
T4 construct: purchased Reaction Biology Corp
T4 sequence (Q9UL54 1-1235): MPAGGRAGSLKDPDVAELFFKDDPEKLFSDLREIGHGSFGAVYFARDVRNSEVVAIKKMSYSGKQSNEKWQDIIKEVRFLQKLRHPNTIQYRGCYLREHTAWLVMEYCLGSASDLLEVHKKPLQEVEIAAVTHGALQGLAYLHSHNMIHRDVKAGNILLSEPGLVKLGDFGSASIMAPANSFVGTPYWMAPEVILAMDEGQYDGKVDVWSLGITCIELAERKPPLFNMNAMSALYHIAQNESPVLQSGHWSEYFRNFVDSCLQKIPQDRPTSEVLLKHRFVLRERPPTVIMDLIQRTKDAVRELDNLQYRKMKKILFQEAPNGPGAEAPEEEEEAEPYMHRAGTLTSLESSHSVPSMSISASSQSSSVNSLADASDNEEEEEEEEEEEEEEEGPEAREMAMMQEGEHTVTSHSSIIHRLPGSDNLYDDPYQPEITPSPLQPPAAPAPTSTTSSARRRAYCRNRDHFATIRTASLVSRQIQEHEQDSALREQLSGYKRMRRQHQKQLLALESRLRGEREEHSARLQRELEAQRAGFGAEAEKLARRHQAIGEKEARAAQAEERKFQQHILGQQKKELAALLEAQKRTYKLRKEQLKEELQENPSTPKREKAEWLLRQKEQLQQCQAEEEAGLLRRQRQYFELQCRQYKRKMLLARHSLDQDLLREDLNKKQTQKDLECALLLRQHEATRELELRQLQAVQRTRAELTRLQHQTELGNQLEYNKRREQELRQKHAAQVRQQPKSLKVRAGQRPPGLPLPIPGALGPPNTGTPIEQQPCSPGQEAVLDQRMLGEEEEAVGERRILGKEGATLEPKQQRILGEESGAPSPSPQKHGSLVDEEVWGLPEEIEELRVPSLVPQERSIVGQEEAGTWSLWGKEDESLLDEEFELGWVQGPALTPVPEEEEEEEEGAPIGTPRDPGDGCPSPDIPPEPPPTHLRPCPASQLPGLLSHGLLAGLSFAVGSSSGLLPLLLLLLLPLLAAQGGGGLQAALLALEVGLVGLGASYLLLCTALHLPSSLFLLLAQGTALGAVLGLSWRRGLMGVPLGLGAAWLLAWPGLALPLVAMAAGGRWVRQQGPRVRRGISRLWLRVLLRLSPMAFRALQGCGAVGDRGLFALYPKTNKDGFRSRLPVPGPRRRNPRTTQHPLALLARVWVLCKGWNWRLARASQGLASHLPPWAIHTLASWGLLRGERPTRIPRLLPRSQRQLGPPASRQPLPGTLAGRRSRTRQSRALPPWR
Procedure: as §1, §2

TIE2/TEK = target: T5, TIE2/TEK (Homo sapiens, UniProt Q02763)
T5 construct: purchased Reaction Biology Corp
Procedure: as §1, §2

[1] = read-out: % Enzyme Activity (relative to DMSO controls) Run 1
[2] = read-out: % Enzyme Activity (relative to DMSO controls) Run 2

T3 sequence (P48729 whole entry): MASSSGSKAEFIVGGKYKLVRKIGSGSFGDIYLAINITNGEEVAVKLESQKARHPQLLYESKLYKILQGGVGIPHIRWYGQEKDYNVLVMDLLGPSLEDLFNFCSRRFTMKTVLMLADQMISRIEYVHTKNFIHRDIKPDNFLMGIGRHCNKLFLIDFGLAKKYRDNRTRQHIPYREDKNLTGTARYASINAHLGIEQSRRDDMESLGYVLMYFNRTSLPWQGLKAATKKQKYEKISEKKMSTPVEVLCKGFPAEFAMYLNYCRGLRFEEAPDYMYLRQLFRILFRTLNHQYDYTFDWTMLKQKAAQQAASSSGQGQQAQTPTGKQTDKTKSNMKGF
T5 sequence (Q02763 23-1124): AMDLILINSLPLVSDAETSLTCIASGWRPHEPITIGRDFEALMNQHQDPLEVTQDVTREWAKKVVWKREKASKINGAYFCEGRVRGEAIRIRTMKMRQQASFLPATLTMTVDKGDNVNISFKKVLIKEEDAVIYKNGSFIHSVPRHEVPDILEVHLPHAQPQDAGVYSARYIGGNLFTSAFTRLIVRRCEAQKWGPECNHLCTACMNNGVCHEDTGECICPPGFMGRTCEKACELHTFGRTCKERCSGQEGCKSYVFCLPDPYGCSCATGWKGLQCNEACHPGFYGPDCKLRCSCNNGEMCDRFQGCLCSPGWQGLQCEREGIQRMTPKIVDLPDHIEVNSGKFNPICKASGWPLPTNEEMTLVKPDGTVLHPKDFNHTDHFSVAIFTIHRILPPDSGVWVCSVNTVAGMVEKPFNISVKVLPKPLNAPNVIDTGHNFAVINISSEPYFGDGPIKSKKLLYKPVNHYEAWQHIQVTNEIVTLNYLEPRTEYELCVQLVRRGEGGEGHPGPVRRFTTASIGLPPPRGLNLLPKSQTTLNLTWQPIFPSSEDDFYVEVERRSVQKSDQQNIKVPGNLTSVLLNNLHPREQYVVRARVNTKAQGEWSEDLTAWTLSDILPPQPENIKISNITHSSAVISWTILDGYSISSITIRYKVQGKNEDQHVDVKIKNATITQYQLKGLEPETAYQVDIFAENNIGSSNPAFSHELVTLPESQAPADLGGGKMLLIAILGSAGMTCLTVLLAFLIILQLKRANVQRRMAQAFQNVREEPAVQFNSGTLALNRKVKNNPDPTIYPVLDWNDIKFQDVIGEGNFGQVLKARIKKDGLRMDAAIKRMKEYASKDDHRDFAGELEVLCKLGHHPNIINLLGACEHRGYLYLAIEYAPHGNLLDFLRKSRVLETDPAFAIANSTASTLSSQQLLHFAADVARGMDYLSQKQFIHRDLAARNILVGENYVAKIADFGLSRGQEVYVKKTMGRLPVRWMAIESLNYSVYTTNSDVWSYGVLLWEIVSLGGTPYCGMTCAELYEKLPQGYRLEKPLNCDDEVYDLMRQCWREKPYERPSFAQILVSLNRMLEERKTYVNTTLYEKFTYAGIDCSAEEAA

C=CC(=O)Nc1cccc(Nc2nc(Nc3ccc(OCCOC)c(F)c3)ncc2F)c1 [Compound 2]
inhibition at 3 µM (DYRK1/DYRK1A): 12%
remaining activity at 3 µM (DYRK1/DYRK1A; [1]): 87.7%
remaining activity at 3 µM (DYRK1/DYRK1A; [2]): 88.4%
inhibition at 3 µM (EPHA8): 5.98%
remaining activity at 3 µM (EPHA8; [1]): 94.2%
remaining activity at 3 µM (EPHA8; [2]): 93.8%
inhibition at 3 µM (CK1a1): -6.67%
remaining activity at 3 µM (CK1a1; [1]): 108%
remaining activity at 3 µM (CK1a1; [2]): 106%
inhibition at 3 µM (TAOK2/TAO1): 3.53%
remaining activity at 3 µM (TAOK2/TAO1; [1]): 98.5%
remaining activity at 3 µM (TAOK2/TAO1; [2]): 94.4%
inhibition at 3 µM (TIE2/TEK): -5.21%
remaining activity at 3 µM (TIE2/TEK; [1]): 103%
remaining activity at 3 µM (TIE2/TEK; [2]): 108%

— patent US9492471B2, “Methods of treating a disease or disorder associated with Bruton'S Tyrosine Kinase” (Celgene Avilomics Research, Inc., priority 2013, dated 2016)
